Experimental data reported in patent publication US20210379085A1, “HALOGENATED SALICYLANILIDES FOR TREATING THE SYMPTOMS OF DERMATITIS” (Union Therapeutics A/S, priority 2018, published 2021).

System: skin barrier and inflammation biomarkers in lesional skin biopsies
Experiment: Microarray (Affymetrix U133A Plus 2) biomarker gene expression in lesional skin biopsies (Example 3)
Format: in vivo, human
Experimental: Patients received topical applications of a niclosamide 2% composition and vehicle once daily for 3 weeks, followed by a 1-week follow up period. Topical niclosamide 2% and vehicle was applied on two separate target lesions of atopic dermatitis (lesions of at least 3×3-cm that are at least 2 cm apart, excluding the face, scalp, genitals, hands, and feet). The application areas (5×5-cm) were randomized (1:1) to once daily application of niclosamide 2% or vehicle at 5 mg/cm^2 without occlusion 6 days per week. Patients came to the study site for all study product application for a total of 3 weeks.
Skin barrier and inflammation biomarker levels were determined from lesional skin biopsies from application areas.
The skin biopsy samples were analysed by immunohistochemistry (IHC), and by gene expression studies by RT-PCR using TaqMan Low Density Array (TLDA), and by microarray using Affymetrix U133A Plus 2. The immunohistochemistry (IHC) was used to analyse cell biomarkers. The methodologies as disclosed by Guttman-Yassky et al, “Major differences in inflammatory dendritic cells and their products distinguish atopic dermatitis from psoriasis”, The Journal of Allergy and Clinical Immunology, vol. 119, issue 5, pages 1210-1217, 2007, were followed except for that U133A Plus 2-set Gene Chip probe arrays was used instead of U95A-set Gene Chip probe arrays.
Experimental design: The hybridization strategy was in concordance with experimental design principles, by for example keeping all samples from the same patient in the same date, and always include samples from every treatment arm/group.
Quality Control and Pre-processing: Quality control of microarray chips were carried out using standard QC metrics and R package microarray Quality Control. Expression measures were obtained using GCRMA algorithm (Wu & Irizarry, 2004). Several visual and modelling techniques were used to elucidate if batch effect existed. Principal Component analysis plots were used to detect if any evident batch effect existed. If such batch effects were found, they were adjusted using Combat, an empirical Bayes method for adjusting data for batch effects that is robust to outliers in small sample sizes (Johnson, Li, & Rabinovic, 2007). The implementation of Combat by package sva was used.
Probe-sets with at least 5% samples with expression larger than 3 (in log 2-scale) were kept for further analysis. Expression values were modelled using mixed-effect models with fixed factors Visit and Treatment Area and a random effect for each patient. Fold changes for the comparisons of interest were estimated and hypothesis testing was conducted on such comparisons using contrasts under the general framework for linear models in limma package. The inter-replicate correlation was computed by Duplicate Correlation function and the linear model was estimated by ImFit. P-values from the moderated (paired) t-test were adjusted for multiple hypotheses using the Benjamini-Hochberg procedure, which controls for FDR.

[1] = Day 22, topical administration of 2% niclosamide, p<0.05
[2] = fold change, Day 22, vehicle-treated vs niclosamide-treated lesion, topical niclosamide 2% once daily 3 weeks, AD lesional skin
[3] = fold change, Day 22 vs baseline, topical niclosamide 2% once daily 3 weeks, AD lesional skin

O=C(Nc1ccc([N+](=O)[O-])cc1Cl)c1cc(Cl)ccc1O [Niclosamide, niclosamide]
CXCL1 downregulation, 2% niclosamide compared to vehicle (microarray values) [1]: −2.10
PI3 downregulation, 2% niclosamide compared to vehicle (microarray values) [1]: −1.87
S100A9 downregulation, 2% niclosamide compared to vehicle (microarray values) [1]: −1.88
S100A12 downregulation, 2% niclosamide compared to vehicle (microarray values) [1]: −2.30
ACOT2 expression, Vehicle vs. Niclosamide (Microarray) [2]: −1.35
ACOX2 expression, Vehicle vs. Niclosamide (Microarray) [2]: −1.40
CCL2 expression, Vehicle vs. Niclosamide (Microarray) [2]: 1.56
CCL13 expression, Vehicle vs. Niclosamide (Microarray) [2]: 1.32
CCL18 expression, Vehicle vs. Niclosamide (Microarray) [2]: 1.66
CCL20 expression, Vehicle vs. Niclosamide (Microarray) [2]: 2.00
CCL23 expression, Vehicle vs. Niclosamide (Microarray) [2]: 1.63
CCL26 expression, Vehicle vs. Niclosamide (Microarray) [2]: 1.69
CCR1 expression, Vehicle vs. Niclosamide (Microarray) [2]: 1.55
CCR6 expression, Vehicle vs. Niclosamide (Microarray) [2]: 1.31
CXCL1 expression, Vehicle vs. Niclosamide (Microarray) [2]: 2.10
DGAT2 expression, Vehicle vs. Niclosamide (Microarray) [2]: −1.19
ELOVL3 expression, Vehicle vs. Niclosamide (Microarray) [2]: −1.66
FA2H expression, Vehicle vs. Niclosamide (Microarray) [2]: −1.57
FAR2 expression, Vehicle vs. Niclosamide (Microarray) [2]: −1.47
FAXDC2 expression, Vehicle vs. Niclosamide (Microarray) [2]: −1.29
IFNGR2 expression, Vehicle vs. Niclosamide (Microarray) [2]: 1.10
IL1F10 expression, Vehicle vs. Niclosamide (Microarray) [2]: −1.79
IL4R expression, Vehicle vs. Niclosamide (Microarray) [2]: 1.29
IL26 expression, Vehicle vs. Niclosamide (Microarray) [2]: 1.78
KRT79 expression, Vehicle vs. Niclosamide (Microarray) [2]: −2.00
LCN2 expression, Vehicle vs. Niclosamide (Microarray) [2]: 1.69
PI 3 expression, Vehicle vs. Niclosamide (Microarray) [2]: 1.87
PNPLA3 expression, Vehicle vs. Niclosamide (Microarray) [2]: −1.79
PPARG expression, Vehicle vs. Niclosamide (Microarray) [2]: −1.55
S100A9 expression, Vehicle vs. Niclosamide (Microarray) [2]: 1.88
S100A12 expression, Vehicle vs. Niclosamide (Microarray) [2]: 2.30
SPTLC3 expression, Vehicle vs. Niclosamide (Microarray) [2]: −1.30
STAT1 expression, Vehicle vs. Niclosamide (Microarray) [2]: 1.13
STAT3 expression, Vehicle vs. Niclosamide (Microarray) [2]: 1.16
TNFSF4 expression, Vehicle vs. Niclosamide (Microarray) [2]: 1.35
ACER1 expression, Niclosamide vs Predose (Microarray) [3]: 1.94
ACOX2 expression, Niclosamide vs Predose (Microarray) [3]: 1.40
ACSL1 expression, Niclosamide vs Predose (Microarray) [3]: 1.21
ANXA6 expression, Niclosamide vs Predose (Microarray) [3]: −1.24
ANXA9 expression, Niclosamide vs Predose (Microarray) [3]: 1.56
CCL2 expression, Niclosamide vs Predose (Microarray) [3]: −1.77
CCL13 expression, Niclosamide vs Predose (Microarray) [3]: −1.40
CCL18 expression, Niclosamide vs Predose (Microarray) [3]: −1.70
CCL19 expression, Niclosamide vs Predose (Microarray) [3]: −1.56
CCL22 expression, Niclosamide vs Predose (Microarray) [3]: −1.83
CCR1 expression, Niclosamide vs Predose (Microarray) [3]: −1.90
CCR2 expression, Niclosamide vs Predose (Microarray) [3]: −1.37
CCR5 expression, Niclosamide vs Predose (Microarray) [3]: −1.40
CCR6 expression, Niclosamide vs Predose (Microarray) [3]: −1.33
CCR7 expression, Niclosamide vs Predose (Microarray) [3]: −1.51
CD2 expression, Niclosamide vs Predose (Microarray) [3]: −1.56
CD3D expression, Niclosamide vs Predose (Microarray) [3]: −1.63
CD3G expression, Niclosamide vs Predose (Microarray) [3]: −1.62
CD28 expression, Niclosamide vs Predose (Microarray) [3]: −1.72
CD86 expression, Niclosamide vs Predose (Microarray) [3]: −1.60
CDSN expression, Niclosamide vs Predose (Microarray) [3]: 1.14
CERS3 expression, Niclosamide vs Predose (Microarray) [3]: 1.13
CLDN1 expression, Niclosamide vs Predose (Microarray) [3]: 1.17
CLDN23 expression, Niclosamide vs Predose (Microarray) [3]: 1.42
CLN8 expression, Niclosamide vs Predose (Microarray) [3]: 1.15
CXCL1 expression, Niclosamide vs Predose (Microarray) [3]: −2.83
CXCL2 expression, Niclosamide vs Predose (Microarray) [3]: −1.81
DGAT2 expression, Niclosamide vs Predose (Microarray) [3]: 1.33
DHCR7 expression, Niclosamide vs Predose (Microarray) [3]: 1.12
ELOVL3 expression, Niclosamide vs Predose (Microarray) [3]: 1.81
EREG expression, Niclosamide vs Predose (Microarray) [3]: 1.19
FA2H expression, Niclosamide vs Predose (Microarray) [3]: 1.50
FAR2 expression, Niclosamide vs Predose (Microarray) [3]: 1.48
FAXDC2 expression, Niclosamide vs Predose (Microarray) [3]: 1.46
FLG expression, Niclosamide vs Predose (Microarray) [3]: 1.17
IFNGR2 expression, Niclosamide vs Predose (Microarray) [3]: −1.13
IL1F10 expression, Niclosamide vs Predose (Microarray) [3]: 1.98
IL2RA expression, Niclosamide vs Predose (Microarray) [3]: −1.27
IL4R expression, Niclosamide vs Predose (Microarray) [3]: −1.80
IL6R expression, Niclosamide vs Predose (Microarray) [3]: −1.25
IL7R expression, Niclosamide vs Predose (Microarray) [3]: −1.58
IL12RB2 expression, Niclosamide vs Predose (Microarray) [3]: −1.21
IL24 expression, Niclosamide vs Predose (Microarray) [3]: −2.19
IL37 expression, Niclosamide vs Predose (Microarray) [3]: 1.69
IRF1 expression, Niclosamide vs Predose (Microarray) [3]: −1.37
KRT23 expression, Niclosamide vs Predose (Microarray) [3]: 1.26
KRT77 expression, Niclosamide vs Predose (Microarray) [3]: 1.43
KRT79 expression, Niclosamide vs Predose (Microarray) [3]: 1.91
LCN2 expression, Niclosamide vs Predose (Microarray) [3]: −1.62
MMP12 expression, Niclosamide vs Predose (Microarray) [3]: −2.81
PI 3 expression, Niclosamide vs Predose (Microarray) [3]: −3.13
PNPLA3 expression, Niclosamide vs Predose (Microarray) [3]: 1.91
PPL expression, Niclosamide vs Predose (Microarray) [3]: 1.06
S100A7 expression, Niclosamide vs Predose (Microarray) [3]: −1.17
S100A8 expression, Niclosamide vs Predose (Microarray) [3]: −1.45
S100A9 expression, Niclosamide vs Predose (Microarray) [3]: −2.81
S100A12 expression, Niclosamide vs Predose (Microarray) [3]: −3.62
S100P expression, Niclosamide vs Predose (Microarray) [3]: −1.35
SCEL expression, Niclosamide vs Predose (Microarray) [3]: 1.43
SERPINB1 expression, Niclosamide vs Predose (Microarray) [3]: −1.29
SERPINB4 expression, Niclosamide vs Predose (Microarray) [3]: −1.54
SPTLC3 expression, Niclosamide vs Predose (Microarray) [3]: 1.44
STAT3 expression, Niclosamide vs Predose (Microarray) [3]: −1.13
TJP3 expression, Niclosamide vs Predose (Microarray) [3]: 1.51
TNFSF4 expression, Niclosamide vs Predose (Microarray) [3]: −1.64
